Assays:
[1] = target: Hormonally up-regulated neu tumor-associated kinase (Homo sapiens) (UniProt P57058); conditions: Compound concentration 1000.0 nM
[2] = target: Substance-P receptor (Homo sapiens) (UniProt P25103); test: NK1 (h) CEREP ligand profiling; conditions: filed as agonist, Compound concentration 10.0 uM
[3] = target: Tyrosine-protein kinase BTK (Homo sapiens) (UniProt Q06187); conditions: Compound concentration 1000.0 nM
[4] = target: GABA-A receptor; anion channel (Homo sapiens) (UniProt P14867+P47870+P18507+P28472+P48169+Q99928+Q9UN88+P34903+O00591+O14764+Q8N1C3+P18505+P78334+P47869+P31644+Q16445); test: Cl- channel (GABA-gated) CEREP ligand profiling; assay type: protein-complex assay; conditions: filed as antagonist; Compound concentration 10.0 uM
[5] = target: Cyclin-dependent kinase 13 (Homo sapiens) (UniProt Q14004); conditions: Compound concentration 1000.0 nM
[6] = target: MAP/microtubule affinity-regulating kinase 4 (Homo sapiens) (UniProt Q96L34); conditions: Compound concentration 1000.0 nM
Sequence of MAP/microtubule affinity-regulating kinase 4 (Homo sapiens) (Q96L34 whole entry): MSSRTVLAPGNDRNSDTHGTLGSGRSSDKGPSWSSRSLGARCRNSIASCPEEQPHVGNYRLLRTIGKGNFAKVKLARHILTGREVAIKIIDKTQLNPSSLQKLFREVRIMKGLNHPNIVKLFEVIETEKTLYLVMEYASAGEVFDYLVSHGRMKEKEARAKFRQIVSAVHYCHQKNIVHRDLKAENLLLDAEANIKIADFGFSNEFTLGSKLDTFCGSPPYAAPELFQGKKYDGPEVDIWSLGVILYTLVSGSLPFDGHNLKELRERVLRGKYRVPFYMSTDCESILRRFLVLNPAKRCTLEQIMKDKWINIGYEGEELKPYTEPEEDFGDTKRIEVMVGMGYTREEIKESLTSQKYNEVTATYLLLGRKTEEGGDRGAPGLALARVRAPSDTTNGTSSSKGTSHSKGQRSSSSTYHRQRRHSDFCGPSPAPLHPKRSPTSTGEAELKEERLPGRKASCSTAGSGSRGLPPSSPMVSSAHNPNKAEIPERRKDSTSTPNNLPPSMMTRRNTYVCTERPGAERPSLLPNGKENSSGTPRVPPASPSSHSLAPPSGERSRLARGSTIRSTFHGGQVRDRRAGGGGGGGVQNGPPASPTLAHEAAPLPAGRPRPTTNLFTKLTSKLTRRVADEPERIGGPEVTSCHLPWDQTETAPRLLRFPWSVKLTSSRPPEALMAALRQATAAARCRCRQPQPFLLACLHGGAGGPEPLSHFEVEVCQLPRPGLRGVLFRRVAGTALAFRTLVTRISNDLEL

[7] = target: cGMP-dependent protein kinase 1 (Homo sapiens) (UniProt Q13976); conditions: Compound concentration 1000.0 nM
[8] = target: MAP kinase-activated protein kinase 2 (Homo sapiens) (UniProt P49137); conditions: Compound concentration 1000.0 nM
[9] = target: Tyrosine-protein kinase Lck (Homo sapiens) (UniProt P06239); conditions: Compound concentration 1000.0 nM
Sequence of Tyrosine-protein kinase Lck (Homo sapiens) (P06239 2-509 limits assumed): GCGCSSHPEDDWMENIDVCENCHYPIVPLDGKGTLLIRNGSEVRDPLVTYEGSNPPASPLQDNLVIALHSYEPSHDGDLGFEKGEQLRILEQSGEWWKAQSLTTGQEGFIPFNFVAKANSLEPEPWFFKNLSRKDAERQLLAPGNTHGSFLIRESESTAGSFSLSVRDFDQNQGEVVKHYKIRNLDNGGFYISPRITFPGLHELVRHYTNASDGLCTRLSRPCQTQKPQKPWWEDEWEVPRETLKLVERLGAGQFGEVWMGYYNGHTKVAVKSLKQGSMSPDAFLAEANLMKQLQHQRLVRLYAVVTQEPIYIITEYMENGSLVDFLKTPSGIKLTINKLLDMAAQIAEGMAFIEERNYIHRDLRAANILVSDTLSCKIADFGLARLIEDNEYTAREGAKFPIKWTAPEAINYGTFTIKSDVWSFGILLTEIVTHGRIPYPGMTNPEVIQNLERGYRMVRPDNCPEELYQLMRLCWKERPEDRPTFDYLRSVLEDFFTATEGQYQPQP

[10] = target: Cyclin-dependent kinase 11B (Homo sapiens) (UniProt P21127); conditions: Compound concentration 1000.0 nM
[11] = target: Beta-1 adrenergic receptor (Homo sapiens) (UniProt P08588); test: beta 1 (h) CEREP ligand profiling; conditions: filed as agonist, Compound concentration 10.0 uM
Sequence of Beta-1 adrenergic receptor (Homo sapiens) (P08588 whole entry, looked up): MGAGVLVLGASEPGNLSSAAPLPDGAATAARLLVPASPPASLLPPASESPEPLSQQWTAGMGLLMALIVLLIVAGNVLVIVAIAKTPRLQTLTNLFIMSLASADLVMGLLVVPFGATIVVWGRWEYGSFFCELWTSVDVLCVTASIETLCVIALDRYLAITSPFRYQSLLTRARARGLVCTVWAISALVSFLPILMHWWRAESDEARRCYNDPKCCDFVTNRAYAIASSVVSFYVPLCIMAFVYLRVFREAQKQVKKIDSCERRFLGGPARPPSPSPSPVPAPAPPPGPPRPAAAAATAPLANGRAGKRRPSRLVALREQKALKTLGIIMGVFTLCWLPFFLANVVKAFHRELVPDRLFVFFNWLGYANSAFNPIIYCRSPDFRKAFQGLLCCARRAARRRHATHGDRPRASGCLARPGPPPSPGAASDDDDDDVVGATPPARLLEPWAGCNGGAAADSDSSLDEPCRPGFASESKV

[12] = target: Proto-oncogene tyrosine-protein kinase receptor Ret (Homo sapiens) (UniProt P07949); conditions: Compound concentration 1000.0 nM
[13] = target: Calcium/calmodulin-dependent protein kinase type 1D (Homo sapiens) (UniProt Q8IU85); conditions: Compound concentration 1000.0 nM
[14] = target: 5-hydroxytryptamine receptor 5A (Homo sapiens) (UniProt P47898); conditions: Compound concentration 10.0 uM
Sequence of 5-hydroxytryptamine receptor 5A (Homo sapiens) (P47898 whole entry): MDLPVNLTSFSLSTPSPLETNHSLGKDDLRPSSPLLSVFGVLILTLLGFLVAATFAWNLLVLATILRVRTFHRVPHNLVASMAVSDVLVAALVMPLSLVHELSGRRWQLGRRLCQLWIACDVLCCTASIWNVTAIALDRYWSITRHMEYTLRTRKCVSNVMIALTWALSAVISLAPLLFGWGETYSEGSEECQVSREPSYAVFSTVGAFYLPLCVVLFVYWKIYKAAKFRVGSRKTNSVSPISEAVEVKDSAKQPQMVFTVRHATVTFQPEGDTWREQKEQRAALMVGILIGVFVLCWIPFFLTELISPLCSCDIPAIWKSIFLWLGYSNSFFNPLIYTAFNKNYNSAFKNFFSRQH

[15] = target: Cannabinoid receptor 2 (Homo sapiens) (UniProt P34972); test: CB2 (h) CEREP ligand profiling; conditions: filed as agonist, Compound concentration 10.0 uM
[16] = target: Serine/threonine-protein kinase Nek4 (Homo sapiens) (UniProt P51957); conditions: Compound concentration 1000.0 nM
[17] = target: Proto-oncogene tyrosine-protein kinase ROS (Homo sapiens) (UniProt P08922); conditions: Compound concentration 1000.0 nM
[18] = target: Mitogen-activated protein kinase 4 (Homo sapiens) (UniProt P31152); conditions: Compound concentration 1000.0 nM
[19] = target: Activin receptor type-2B (Homo sapiens) (UniProt Q13705); conditions: Compound concentration 1000.0 nM
[20] = target: Cyclin-dependent kinase-like 1 (Homo sapiens) (UniProt Q00532); conditions: Compound concentration 1000.0 nM
[21] = target: Serine/threonine-protein kinase RIO3 (Homo sapiens) (UniProt O14730); conditions: Compound concentration 1000.0 nM
Sequence of Serine/threonine-protein kinase RIO3 (Homo sapiens) (O14730 whole entry): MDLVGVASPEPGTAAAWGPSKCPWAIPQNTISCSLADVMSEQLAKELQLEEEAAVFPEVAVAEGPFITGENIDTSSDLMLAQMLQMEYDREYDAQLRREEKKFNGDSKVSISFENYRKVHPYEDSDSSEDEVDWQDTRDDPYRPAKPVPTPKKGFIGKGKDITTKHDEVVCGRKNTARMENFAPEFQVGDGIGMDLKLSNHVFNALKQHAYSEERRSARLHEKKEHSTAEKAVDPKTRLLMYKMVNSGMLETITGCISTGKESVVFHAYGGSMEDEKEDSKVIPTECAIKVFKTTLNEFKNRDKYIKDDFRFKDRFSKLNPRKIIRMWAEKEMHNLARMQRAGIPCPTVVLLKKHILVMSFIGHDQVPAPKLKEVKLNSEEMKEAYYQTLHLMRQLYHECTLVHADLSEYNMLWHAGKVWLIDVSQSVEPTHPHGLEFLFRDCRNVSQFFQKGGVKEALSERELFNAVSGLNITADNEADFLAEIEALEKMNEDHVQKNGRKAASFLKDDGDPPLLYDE

[22] = target: Urotensin-2 receptor (Homo sapiens) (UniProt Q9UKP6); test: UT (h) CEREP ligand profiling; conditions: filed as agonist, Compound concentration 10.0 uM
[23] = target: Aurora kinase B (Homo sapiens) (UniProt Q96GD4); conditions: Compound concentration 1000.0 nM
[24] = target: cAMP-dependent protein kinase catalytic subunit PRKX (Homo sapiens) (UniProt P51817); conditions: Compound concentration 1000.0 nM
[25] = target: Serine/threonine-protein kinase TAO3 (Homo sapiens) (UniProt Q9H2K8); conditions: Compound concentration 1000.0 nM
[26] = system: Phosphatidylinositol 4,5-bisphosphate 3-kinase catalytic subunit alpha isoform (Homo sapiens), P42336 [E545K]; conditions: Compound concentration 1000.0 nM
[27] = target: Serine/threonine-protein kinase 35 (Homo sapiens) (UniProt Q8TDR2); conditions: Compound concentration 1000.0 nM
[28] = target: T1, Muscarinic acetylcholine receptor M1 (Homo sapiens) (UniProt P11229); test: M1 (h) CEREP ligand profiling; conditions: filed as antagonist, Compound concentration 10.0 uM
T1 sequence (whole entry): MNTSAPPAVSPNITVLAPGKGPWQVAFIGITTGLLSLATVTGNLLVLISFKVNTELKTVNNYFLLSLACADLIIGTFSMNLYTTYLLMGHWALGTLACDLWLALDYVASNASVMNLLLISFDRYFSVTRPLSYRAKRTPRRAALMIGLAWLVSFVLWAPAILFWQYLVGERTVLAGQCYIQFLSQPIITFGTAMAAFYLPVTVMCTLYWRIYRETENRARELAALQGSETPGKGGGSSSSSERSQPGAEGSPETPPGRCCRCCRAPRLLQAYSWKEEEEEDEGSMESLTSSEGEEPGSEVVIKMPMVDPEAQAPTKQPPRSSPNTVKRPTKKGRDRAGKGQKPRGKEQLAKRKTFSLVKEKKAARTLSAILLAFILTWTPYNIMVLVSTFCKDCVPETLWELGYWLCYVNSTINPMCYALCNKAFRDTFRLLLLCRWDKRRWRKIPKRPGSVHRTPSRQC

[29] = system: Epidermal growth factor receptor (Homo sapiens), P00533 [UNDEFINED MUTATION]; conditions: Compound concentration 1000.0 nM
[30] = target: RAC-beta serine/threonine-protein kinase (Homo sapiens) (UniProt P31751); conditions: Compound concentration 1000.0 nM
[31] = system: Proto-oncogene tyrosine-protein kinase receptor Ret (Homo sapiens), P07949 [V804L]; conditions: Compound concentration 1000.0 nM
[32] = target: Hepatocyte growth factor receptor (Homo sapiens) (UniProt P08581); conditions: Compound concentration 1000.0 nM
Sequence of Hepatocyte growth factor receptor (Homo sapiens) (P08581 whole entry): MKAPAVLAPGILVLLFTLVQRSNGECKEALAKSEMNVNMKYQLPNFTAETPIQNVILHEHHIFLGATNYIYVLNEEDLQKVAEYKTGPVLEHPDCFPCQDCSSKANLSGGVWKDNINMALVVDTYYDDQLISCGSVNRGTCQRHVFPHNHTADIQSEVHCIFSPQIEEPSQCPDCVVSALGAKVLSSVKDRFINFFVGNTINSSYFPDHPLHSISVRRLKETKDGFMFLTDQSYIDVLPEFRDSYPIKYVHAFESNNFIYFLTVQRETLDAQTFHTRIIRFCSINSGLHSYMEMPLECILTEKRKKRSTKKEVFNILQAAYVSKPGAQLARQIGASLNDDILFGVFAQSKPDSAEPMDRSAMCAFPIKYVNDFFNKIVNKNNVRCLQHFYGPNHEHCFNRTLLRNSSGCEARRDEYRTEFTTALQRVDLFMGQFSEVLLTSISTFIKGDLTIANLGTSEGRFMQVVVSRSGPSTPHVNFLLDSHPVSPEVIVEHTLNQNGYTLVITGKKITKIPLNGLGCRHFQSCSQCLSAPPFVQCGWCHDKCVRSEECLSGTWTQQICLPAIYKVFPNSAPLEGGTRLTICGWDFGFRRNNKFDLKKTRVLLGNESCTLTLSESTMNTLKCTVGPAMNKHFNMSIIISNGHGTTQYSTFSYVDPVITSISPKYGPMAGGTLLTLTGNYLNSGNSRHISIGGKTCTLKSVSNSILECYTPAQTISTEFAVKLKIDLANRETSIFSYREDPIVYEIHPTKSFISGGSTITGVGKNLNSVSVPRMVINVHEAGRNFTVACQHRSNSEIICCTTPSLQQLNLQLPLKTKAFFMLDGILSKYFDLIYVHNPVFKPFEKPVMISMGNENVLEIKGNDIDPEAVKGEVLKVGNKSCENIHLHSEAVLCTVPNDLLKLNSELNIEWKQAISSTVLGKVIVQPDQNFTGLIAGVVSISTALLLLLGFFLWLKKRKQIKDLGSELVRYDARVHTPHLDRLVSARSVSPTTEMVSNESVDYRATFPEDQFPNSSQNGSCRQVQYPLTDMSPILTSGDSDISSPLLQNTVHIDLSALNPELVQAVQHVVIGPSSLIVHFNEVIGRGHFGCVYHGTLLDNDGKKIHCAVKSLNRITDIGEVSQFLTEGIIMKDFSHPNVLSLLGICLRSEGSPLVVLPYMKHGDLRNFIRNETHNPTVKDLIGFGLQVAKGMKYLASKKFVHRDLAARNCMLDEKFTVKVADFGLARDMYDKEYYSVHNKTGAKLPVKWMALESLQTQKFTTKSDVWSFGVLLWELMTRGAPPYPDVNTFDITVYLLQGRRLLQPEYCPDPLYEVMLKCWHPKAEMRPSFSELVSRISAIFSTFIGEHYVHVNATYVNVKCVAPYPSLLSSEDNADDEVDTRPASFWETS

[33] = target: Rhodopsin kinase GRK7 (Homo sapiens) (UniProt Q8WTQ7); conditions: Compound concentration 1000.0 nM
[34] = target: Ribosomal protein S6 kinase alpha-1 (Homo sapiens) (UniProt Q15418); conditions: Compound concentration 1000.0 nM
[35] = target: Cyclin-dependent kinase-like 5 (Homo sapiens) (UniProt O76039); conditions: Compound concentration 1000.0 nM

Sequence of Hormonally up-regulated neu tumor-associated kinase (Homo sapiens) (P57058 whole entry): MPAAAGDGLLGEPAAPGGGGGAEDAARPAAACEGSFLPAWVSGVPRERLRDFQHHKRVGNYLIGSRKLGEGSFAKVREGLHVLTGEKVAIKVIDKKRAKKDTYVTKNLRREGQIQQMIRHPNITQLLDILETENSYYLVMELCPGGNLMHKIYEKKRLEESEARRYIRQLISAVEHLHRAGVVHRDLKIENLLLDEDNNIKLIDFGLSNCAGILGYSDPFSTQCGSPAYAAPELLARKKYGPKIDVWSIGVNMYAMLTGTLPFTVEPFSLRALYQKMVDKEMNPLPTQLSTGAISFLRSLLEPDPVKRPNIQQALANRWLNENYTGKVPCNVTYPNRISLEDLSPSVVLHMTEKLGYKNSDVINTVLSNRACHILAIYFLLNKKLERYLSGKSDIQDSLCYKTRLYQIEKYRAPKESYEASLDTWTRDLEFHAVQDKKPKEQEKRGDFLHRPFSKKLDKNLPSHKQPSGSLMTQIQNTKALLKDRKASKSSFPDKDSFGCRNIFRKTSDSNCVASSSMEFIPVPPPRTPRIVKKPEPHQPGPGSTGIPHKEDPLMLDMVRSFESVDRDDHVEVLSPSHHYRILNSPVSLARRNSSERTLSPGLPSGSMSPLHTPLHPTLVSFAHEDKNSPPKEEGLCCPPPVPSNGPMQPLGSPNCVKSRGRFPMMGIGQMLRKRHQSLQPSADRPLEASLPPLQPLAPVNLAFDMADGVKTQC

CNC(=O)Nc1ccc2c(c1)CC[C@@]21OC(=O)N(CC(=O)N(Cc2ccc(F)cc2)[C@@H](C)C(F)(F)F)C1=O [A-485]
inactive: residual activity [1] 100% | inhibition [2] 21% | residual activity [3] 87% | inhibition [4] 47% | residual activity [5] 96% | residual activity [6] 84% | residual activity [7] 100% | residual activity [8] 87% | residual activity [9] 84% | residual activity [10] 84% | inhibition [11] 17% | residual activity [12] 90% | residual activity [13] 94% | inhibition [14] 5.99% | inhibition [15] 67% | residual activity [16] 94% | residual activity [17] 80% | residual activity [18] 84% | residual activity [19] 96% | residual activity [20] 86% | residual activity [21] 89% | inhibition [22] 6% | residual activity [23] 86% | residual activity [24] 92% | residual activity [25] 74% | residual activity [26] 80% | residual activity [27] 89% | inhibition [28] -2% | residual activity [29] 95% | residual activity [30] 80% | residual activity [31] 91% | residual activity [32] 88% | residual activity [33] 83% | residual activity [34] 86% | residual activity [35] 69%

CNC(=O)Nc1ccc2c(c1)[C@@]1(CC2)OC(=O)N(CC(=O)N(Cc2ccc(F)cc2)[C@@H](C)C(F)(F)F)C1=O [A-486]
inactive: residual activity [1] 100% | inhibition [2] 12% | residual activity [3] 97% | inhibition [4] 41% | residual activity [5] 92% | residual activity [6] 92% | residual activity [7] 100% | residual activity [8] 100% | residual activity [9] 86% | residual activity [10] 97% | inhibition [11] 6% | residual activity [12] 93% | residual activity [13] 100% | inhibition [14] 2.78% | inhibition [15] 4% | residual activity [16] 100% | residual activity [17] 87% | residual activity [18] 98% | residual activity [19] 100% | residual activity [20] 91% | residual activity [21] 100% | inhibition [22] 21% | residual activity [23] 93% | residual activity [24] 100% | residual activity [25] 82% | residual activity [26] 76% | residual activity [27] 85% | inhibition [28] -8% | residual activity [29] 96% | residual activity [30] 99% | residual activity [31] 94% | residual activity [32] 100% | residual activity [33] 85% | residual activity [34] 96% | residual activity [35] 82%
